In brackets after ≈: the same amount, converted by molar mass.
Key:
[1] = Aqueous solubility of the compound; assay type: physicochemical; settings: buffer
[2] = test system: Plutella xylostella; assay: Insecticidal activity against second-instar larvae Plutella xylostella (diamondback moth) in compound treated cabbage leaves assessed as mortality at 5000 ug/mL after 48 hr by leaf dip method; assay type: functional; settings: foliar
[3] = test system: Plutella xylostella; assay: Insecticidal activity against second-instar larvae Plutella xylostella (diamondback moth) in compound treated cabbage leaves assessed as mortality at 10000 ug/mL after 48 hr by leaf dip method; assay type: functional; settings: foliar
[4] = test system: Plutella xylostella; assay: Insecticidal activity against second-instar larvae Plutella xylostella (diamondback moth) in compound treated cabbage leaves assessed as mortality after 48 hr by leaf dip method; assay type: functional; settings: foliar

solubility [1]	Compound	mortality at 5000 µg/mL [2]	mortality at 10000 µg/mL [3]	LC50 [4]
Insoluble	COc1ccc(C(=O)/C=C/c2cccc3ccccc23)cc1			
	O=C(/C=C/c1ccc(Cl)c(Cl)c1)c1ccc(Cl)cc1	60%	97.7%	
Insoluble	COc1cc(/C=C/C(C)=O)ccc1O [DEHYDROZINGERONE]			
	COc1ccc(/C=C/C(=O)c2ccc(OC)cc2)cc1 [4,4'-DIMETHOXYCHALCONE]	16.6%	26.6%	
	O=C(/C=C/c1cccs1)c1ccc([N+](=O)[O-])cc1	23.3%	30%	
	COc1ccc(/C=C/C(=O)c2ccc(Cl)cc2)cc1	26.6%	50%	
	C=CCOc1ccc(C(=O)/C=C/c2ccc(Cl)cc2)cc1	100%	100%	268 µg/mL (≈ 898 µM)
	O=C(/C=C/c1ccc(Cl)cc1)c1ccc([N+](=O)[O-])cc1	20%	26.6%	
	COc1ccc(C(=O)/C=C/c2ccc(F)cc2)cc1	26.6%	33.3%	
	O=C(/C=C/c1ccco1)c1ccc([N+](=O)[O-])cc1	16.6%	23%	
	COc1cc(OC)c(OC)cc1/C=C/C(C)=O	0%	26.6%	
	COc1ccc(C(=O)/C=C/c2ccc(Cl)cc2Cl)cc1	100%	100%	278 µg/mL (≈ 907 µM)
	O=C(/C=C/c1ccc(Cl)cc1)c1ccc2c(c1)OCO2	13.3%	23%	
	COc1ccc(C(=O)/C=C/c2ccc(Cl)cc2)cc1	100%	100%	356 µg/mL (≈ 1310 µM)
	COc1ccc(C(=O)/C=C/c2ccc(Br)cc2)cc1	3.3%	10%	
	COc1ccc(C(=O)/C=C/c2ccc(Cl)c(Cl)c2)cc1OC	46.6%	68%	
	COc1ccccc1C(=O)/C=C/c1ccc(Cl)c(Cl)c1	50%	63.3%	
Insoluble	COc1cccc(C(=O)/C=C/c2ccc(Cl)c(Cl)c2)c1			
	COc1ccc(C(=O)/C=C/c2ccc(Cl)c(Cl)c2)cc1	100%	100%	288 µg/mL (≈ 936 µM)
	CC1(C)[C@H](C(=O)O[C@H](C#N)c2cccc(Oc3ccccc3)c2)[C@@H]1C=C(Br)Br [DELTAMETHRIN]			6.25 µg/mL (≈ 12.4 µM)
	O=C(/C=C/c1ccc(Cl)cc1)c1ccc(Cl)cc1 [4',4-DICHLOROCHALCONE]	100%	100%	170 µg/mL (≈ 614 µM)
	O=C(/C=C/c1ccc(Cl)c(Cl)c1)c1ccc(Cl)c(Cl)c1	46.6%	73.3%	
	O=C(/C=C/c1ccc(Cl)cc1)c1ccc(O)cc1	100%	100%	871 µg/mL (≈ 3370 µM)
	COc1ccc(/C=C/C(C)=O)cc1	26.6%	30%	
	Cc1ccc(C(=O)/C=C/c2ccc(Cl)c(Cl)c2)cc1	60%	83.3%	
Insoluble	COc1cc(C(=O)/C=C/c2ccc(Cl)c(Cl)c2)cc(OC)c1OC			

— ChEMBL document CHEMBL3045483, “Chalcones as promising pesticidal agents against diamondback moth (Plutella xylostella): microwave-assisted synthesis and structureactivity relationship” (Med Chem Res, 2012)
